Measured values as given in patent US7718641B2, “Pyrrolo [3,4-H] isoquinoline compounds and methods for modulating gated ion channels” (Aros Pharma ApS, priority 2005, dated 2010).

Assays:
Assay type in all cases: cell-based
rat ASIC1a = target: T1, rat ASIC1a (Rattus norvegicus, UniProt P55926); assay: Whole-cell patch clamp of acid-induced peak inward currents in HEK293 transfected with rat ASIC1a; conditions: for inhibitory effect on acid-induced peak inward currents, rASIC1a: HEK293, voltage clamp, increasing concentrations; for potency as antagonist compared to amiloride, rASIC1a: full dose-inhibition curves, HEK293
T1 construct: expressed in transfected cells; host or cells: HEK293
T1 sequence (P55926 1-526): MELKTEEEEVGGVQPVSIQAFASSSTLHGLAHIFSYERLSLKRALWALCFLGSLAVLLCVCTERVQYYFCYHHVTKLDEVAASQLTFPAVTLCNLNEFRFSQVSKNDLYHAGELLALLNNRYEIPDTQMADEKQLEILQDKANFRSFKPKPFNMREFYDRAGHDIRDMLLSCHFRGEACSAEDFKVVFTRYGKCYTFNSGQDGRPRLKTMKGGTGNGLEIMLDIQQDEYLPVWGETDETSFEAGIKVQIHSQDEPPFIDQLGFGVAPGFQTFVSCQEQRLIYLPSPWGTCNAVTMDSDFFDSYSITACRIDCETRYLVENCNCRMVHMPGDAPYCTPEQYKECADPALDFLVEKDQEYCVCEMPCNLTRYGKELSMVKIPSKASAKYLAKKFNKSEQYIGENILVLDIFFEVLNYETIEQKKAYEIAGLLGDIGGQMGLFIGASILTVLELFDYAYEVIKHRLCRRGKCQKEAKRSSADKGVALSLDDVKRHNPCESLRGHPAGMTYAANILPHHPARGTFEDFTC
Protocol: (§1) Another example of an in vitro assessment method consists of using mammalian heterologous expression systems, which are known to the skilled in the art, and include a variety of mammalian cell lines such as COS, HEK, e.g., HEK293 and/or CHO, cells. Cell lines are transfected with gated ion channel(s) and used to perform electrophysiology as follows:
(§2) All experiments are performed at room temperature (20-25° C.) in voltage clamp using conventional whole cell patch clamp methods (Neher, E., et al. (1978) Pfluegers Arch 375:219-228).
(§3) The amplifier used is the EPC-9 (HEKA-electronics, Lambrect, Germany) run by a Macintosh G3 computer via an ITC-16 interface. Experimental conditions are set with the Pulse-software accompanying the amplifier. Data is low pass filtered and sampled directly to hard-disk at a rate of 3 times the cut-off frequency.
(§4) Pipettes are pulled from borosilicate glass using a horizontal electrode puller (Zeitz-Instrumente, Augsburg, Germany). The pipette resistances are 2-3 MOhms in the salt solutions used in these experiments. The pipette electrode is a chloridized silver wire, and the reference is a silver chloride pellet electrode (In Vivo Metric, Healdsburg, USA) fixed to the experimental chamber. The electrodes are zeroed with the open pipette in the bath just prior to sealing.
(§5) Coverslips with the cells are transferred to a 15 μl experimental chamber mounted on the stage of an inverted microscope (IMT-2, Olympus) supplied with Nomarski optics. Cells are continuously superfused with extracellular saline at a rate of 2.5 ml/min. After giga-seal formation, the whole cell configuration is attained by suction. The cells are held at a holding voltage of −60 mV and at the start of each experiment the current is continuously measured for 45 s to ensure a stable baseline. Solutions of low pH (<7) are delivered to the chamber through a custom-made gravity-driven flowpipe, the tip of which is placed approximately 50 μm from the cell. Application is triggered when the tubing connected to the flowpipe is compressed by a valve controlled by the Pulse-software. Initially, low pH (in general, pH 6.5) is applied for 5 s every 60 s. The sample interval during application is 5501s. […] Current amplitudes are measured at the peak of the responses, and effect of the compounds is calculated as the amplitude at compound equilibrium divided by the amplitude of the current evoked by the pulse just before the compound was included. […]
(§6) HEK293 cells were transfected with rASIC1a or rASIC3 and were used to perform full dose-inhibition curves with Compound A, Compound H and amiloride. Results are expressed as a fraction of the control peak current obtained in the absence of the test substance.

rat ASIC3 = target: T2, rat ASIC3 (Rattus norvegicus, UniProt O35240); assay: Whole-cell patch clamp of acid-induced peak inward currents in HEK293 transfected with rat ASIC3; conditions: for inhibitory effect on acid-induced peak inward currents, rASIC3: HEK293, voltage clamp, increasing concentrations; for potency as antagonist compared to amiloride, rASIC3: full dose-inhibition curves, HEK293
T2 construct: expressed in transfected cells; host or cells: HEK293
T2 sequence (O35240 1-533): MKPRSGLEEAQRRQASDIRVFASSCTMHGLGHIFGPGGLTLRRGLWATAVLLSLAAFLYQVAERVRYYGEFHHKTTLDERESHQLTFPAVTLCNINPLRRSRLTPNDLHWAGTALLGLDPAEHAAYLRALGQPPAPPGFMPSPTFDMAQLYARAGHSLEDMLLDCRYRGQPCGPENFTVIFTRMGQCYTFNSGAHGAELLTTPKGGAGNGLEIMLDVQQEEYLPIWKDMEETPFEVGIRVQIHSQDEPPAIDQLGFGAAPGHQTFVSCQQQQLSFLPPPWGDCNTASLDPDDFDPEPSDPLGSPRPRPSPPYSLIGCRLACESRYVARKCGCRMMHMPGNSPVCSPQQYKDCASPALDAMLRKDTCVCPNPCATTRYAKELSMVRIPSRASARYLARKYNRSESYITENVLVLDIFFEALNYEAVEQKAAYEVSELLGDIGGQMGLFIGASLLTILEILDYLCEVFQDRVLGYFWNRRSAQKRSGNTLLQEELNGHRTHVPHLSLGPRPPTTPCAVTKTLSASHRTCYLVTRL
Protocol: as §1, §2, §3, §4, §5, §6

[1] = test system: rat dorsal root ganglion neurons; assay: Patch clamp (voltage clamp) of native proton-gated currents in rat dorsal root ganglion neurons in primary culture; conditions: 1 μM, voltage-clamp mode, n=3
Protocol: These endogenous proton-activated inward currents were recorded in the presence and absence of Compound A (1 μM) or Compound H (1 μM) using the whole cell configuration of the patch clamp method (voltage clamp mode).
Sensory neurons can be isolated and cultured in vitro from different animal species. The most widely used protocols use sensory neurons isolated from neonatal (Eckert, et al. (1997) J Neurosci Methods 77:183-190) and embryonic (Vasko, et al. (1994) J Neurosci 14:4987-4997) rat. […] Electrophysiology is performed similarly as described above in Example 2. […] In the current-clamp mode, change in the trans-membrane potential are recorded. Under acidic conditions (e.g., pH 6.5) the membrane depolarizes, leading to the firing of action potentials, as shown in FIGS. 7A and 7B.

Row | inhibitory effect on acid-induced peak inward currents, rASIC1a (rat ASIC1a) | inhibitory effect on acid-induced peak inward currents, rASIC3 (rat ASIC3) | SMILES | potency as antagonist compared to amiloride, rASIC1a (rat ASIC1a) | potency as antagonist compared to amiloride, rASIC3 (rat ASIC3) | effect on pH 6.5-induced inward current in sensory neurons [1]
1 | dose-dependently inhibit | dose-dependently inhibit | CCN1CCc2c(-c3ccccc3)cc3c(c2C1)NC(=O)/C3=N/O [Compound H, 5-phenyl-6,7,8,9-tetrahydro-3-(hydroxyimino)-8-ethyl-1H-pyrrolo[3,2-h]isoquinoline-2(3H)-one] | more potent antagonists as compared to amiloride | more potent antagonists as compared to amiloride | inhibit the pH 6.5-induced inward current
2 | dose-dependently inhibit | dose-dependently inhibit | COc1ccc(F)cc1-c1cc2c(c3c1CCN(C)C3)NC(=O)/C2=N/O [Compound A, 5-(5-fluoro-2-methoxyphenyl)-6,7,8,9-tetrahydro-3-(hydroxyimino)-8-methyl-1H-pyrrolo[3,2-h]isoquinoline-2(3H)-one] | more potent antagonists as compared to amiloride | more potent antagonists as compared to amiloride | inhibit the pH 6.5-induced inward current
